# In article PMC7312375, “A Novel, Pan-PDE Inhibitor Exerts Anti-Fibrotic Effects in Human Lung Fibroblasts via Inhibition of TGF-β Signaling and Activation of cAMP/PKA Signaling” (International Journal of Molecular Sciences, 2020):
# Key:
# Assay type in all cases: cell-based, human
# [1] = system: TGF-β1-induced MRC-5 cells; experiment: Immunofluorescence, nuclear localization of p-CREB; settings: 10 µM
# Protocol: For immunocytochemical labeling, MRC-5 cells were seeded on glass coverslips. Study compounds (10 µM) were added 1 h before TGF-β1 treatment, and analysis was performed after 1 h (p-Smad-2 and p-CREB detection) or 48 h (α-SMA detection) of incubation. Cells were fixed in methanol or 4% formaldehyde solution, permeabilized in 0.2% or 0.1% Triton X-100 solution (for p-Smad-2 and p-CREB or α-SMA, respectively). After incubation in blocking solution the following primary antibodies: rabbit polyclonal, anti-phospho-Smad-2 (Ser465, Ser467) antibody (#44-244G, Thermo Fisher Scientific, Waltham, MA, USA); rabbit polyclonal, anti-phospho-CREB1 (Ser133) antibody (#orb213775, Biorbyt, Cambridge, United Kingdom); mouse monoclonal, anti-α-SMA antibody (#MA5-11547, Thermo Fisher Scientific, Waltham, MA, USA) and secondary antibodies: goat anti-rabbit Alexa Fluor 546 conjugated antibody and goat anti-mouse Alexa Fluor 488 conjugated antibody (#A-11010 and #A-11001, respectively, Invitrogen, Carlsbad, CA, USA) were used. Nuclei were counterstained with Hoechst 33342 dye (Thermo Fisher Scientific, Waltham, MA, USA). Slides were mounted in ProLong™ Glass Antifade Mountant (Invitrogen, Carlsbad, CA, USA) and analyzed using Leica DMiL LED Fluo microscope (for α-SMA and p-CREB visualization, 40× objective) or Leica DMi8 with Thunder Imaging System (for p-Smad-2 visualization, 40× objective), all equipped with LAS-X Software (Leica Microsystems GmbH, Wetzlar, Germany). Experiments were run four times using five randomly selected fields of view, at the same fluorescent time exposure and in a blind-folded manner.
# MRC-5 cells [2] = experiment: cAMP ELISA; settings: 10 µM, 30 min
# Protocol: MRC-5 cells were seeded in standard culture medium for 24 h and then serum-starved for 2 h in HBSS. The study compounds (10 µM) were added to the MRC-5 cultures and after 30 min of incubation, the intracellular cAMP level in cell lysates was measured using a colorimetric cAMP ELISA Kit according to the manufacturer’s protocol (Cell Biolabs, INC., San Diego, CA, USA). Obtained results were normalized to total protein content in each sample. The experiments were run two times in duplicates.
# [3] = system: TGF-β1-induced MRC-5 cells; experiment: Protein kinase A activity; settings: 10 µM 30 min, then TGF-β1 30 min
# Protocol: Protein Kinase A (PKA) activity in MRC-5 cells was determined using a PKA Colorimetric Activity Kit (Invitrogen, Carlsbad, CA, USA) according to the manufacturer’s protocol. MRC-5 cells were seeded in standard culture medium, and after 48 h they were serum-starved for 2 h in HBSS, followed by the addition of study compounds (10 µM) and incubation for 30 min. Finally, TGF-β1 was administered, and the samples were incubated for an additional 30 min. Whole cell lysates were used in the assay. The amount of PKA was normalized to the total protein content in each sample. The experiments were run two times in duplicates.
# [4] = system: TGF-β1-induced MRC-5 cells; experiment: Western blot of p-CREB; settings: 10 µM
# Protocol: Western Blot analysis was performed according to a standard protocol. Briefly, MRC-5 cells were pre-incubated with the study compounds (10 µM) for 1 h, followed by 48 h incubation with TGF-β1 and then lysed in RIPA buffer (RIPA Lysis and Extraction Buffer, Thermo Fisher Scientific, Waltham, MA, USA) and supplemented with protease inhibitor cocktail and phosphatase inhibitor cocktail (both from Sigma Aldrich, St. Louis, MO, USA). Equal amounts of protein (30 µg) were separated using 10% SDS-polyacrylamide gels and transferred onto polyvinylidene difluoride (PVDF) membranes (Thermo Fisher Scientific, Waltham, MA, USA). […] ROD was measured according to the NIH guidelines with Fiji ImageJ Software. […]
# MRC-5 cells [5] = experiment: TGF-β1-induced collagen gel contraction assay; settings: 10 µM, 1 h pre-incubation, 6 h TGF-β1; compared to TGF-β1 alone
# Protocol: A collagen cell contraction assay was performed according to manufactures’ instructions (Cell Biolabs, INC., San Diego, CA, USA). Briefly, MRC-5 was harvested and mixed with a collagen solution. After polymerization, collagen gel lattices were cultured for two days, during which mechanical tension develops. Before releasing the stressed matrix, MRC-5 cells were pre-treated with study compounds (10 µM) for 1 h. Then collagen gels were gently released from the sides of the culture dishes and contraction in the presence of study compounds, and TGF-β1 was initiated. The collagen gel size was monitored at various time points and quantified with the Fiji ImageJ Software (National Institutes of Health, Bethesda, MD, USA, version 1.52q). The experiments were run three times.
smiles,measurement,setting,value
"C=C[C@@]1(C)CC(=O)[C@]2(O)[C@@]3(C)[C@@H](O)CCC(C)(C)[C@@H]3[C@H](O)[C@H](OC(C)=O)[C@@]2(C)O1 [forskolin, reference compound]",elevation of fraction of MRC-5 cells with nuclear p-CREB localization,[1],76%
same,increase in cAMP level compared to control,MRC-5 cells [2],5.7 fold
same,Protein kinase A activity in TGF-β1-induced fibroblasts,[3],the highest
same,CREB phosphorylation (immunoblot),[4],increased CREB phosphorylation
same,size of collagen gel lattices (TGF-β1-induced contraction),MRC-5 cells [5],showed similar properties as 145 or IBMX
